O=C1c2cccc(Cl)c2C(=O)N1c1ccccc1
solubility (mole fraction)
Conditions | in 1,4-dioxane | in acetic acid | in acetone | in acetonitrile | in ethyl acetate | in isobutanol | in isopropanol | in methanol | in n-butanol | in n-propanol
288.15 K | 0.00825 | 0.000923 | 0.00298 | 0.00196 | 0.0021 | 0.000116 | 7.27e-05 | 0.000147 | 0.000183 | 0.000162
290.65 K | 0.00898 | 0.00104 | 0.00324 | 0.00216 | 0.00232 | 0.000128 | 8.36e-05 | 0.000171 | 0.000204 | 0.000187
293.15 K | 0.00979 | 0.00116 | 0.00358 | 0.00236 | 0.00255 | 0.000149 | 9.82e-05 | 0.000194 | 0.000234 | 0.000226
295.65 K | 0.0107 | 0.0013 | 0.00392 | 0.00258 | 0.00284 | 0.000167 | 0.000111 | 0.00022 | 0.000266 | 0.000266
298.15 K | 0.0115 | 0.00145 | 0.00429 | 0.0028 | 0.00315 | 0.000189 | 0.000132 | 0.000249 | 0.000308 | 0.000311
300.65 K | 0.0125 | 0.00159 | 0.00468 | 0.00305 | 0.00347 | 0.000221 | 0.000151 | 0.00028 | 0.000345 | 0.000353
303.15 K | 0.0134 | 0.00175 | 0.00505 | 0.00332 | 0.0038 | 0.000258 | 0.000178 | 0.000308 | 0.000388 | 0.000411
305.65 K | 0.0145 | 0.00189 | 0.00551 | 0.00361 | 0.00412 | 0.000296 | 0.000208 | 0.000339 | 0.000432 | 0.000468
308.15 K | 0.0158 | 0.00206 | 0.00597 | 0.00397 | 0.00448 | 0.000341 | 0.000237 | 0.000381 | 0.000478 | 0.000527
310.65 K | 0.0171 | 0.00225 | 0.00654 | 0.0043 | 0.00484 | 0.000392 | 0.000268 | 0.000428 | 0.000535 | 0.000593
313.15 K | 0.0188 | 0.00248 | 0.00718 | 0.0047 | 0.00525 | 0.000457 | 0.000305 | 0.000478 | 0.000597 | 0.000668
315.65 K | 0.0204 | 0.00273 | 0.00779 | 0.00514 | 0.00568 | 0.000526 | 0.000345 | 0.000533 | 0.000665 | 0.000747
318.15 K | 0.0224 | 0.00299 | 0.00851 | 0.00553 | 0.00617 | 0.000599 | 0.000387 | 0.00059 | 0.00074 | 0.00083
320.65 K | 0.0243 | 0.00328 | 0.00919 | 0.00603 | 0.00669 | 0.000679 | 0.000445 | 0.000656 | 0.000821 | 0.000917
323.15 K | 0.0266 | 0.00364 | 0.00995 | 0.00655 | 0.00734 | 0.000762 | 0.00053 | 0.000745 | 0.000908 | 0.00103
